Data: US20240174633A1, “CRYSTALLINE FORMS OF (4S)-24-CHLORO-4-ETHYL-73-FLUORO-35-METHOXY-32,5-DIOXO-14-(TRIFLUORO-METHYL)-32H-6-AZA-3(4,1)-PYRIDINA-1(1)-[1,2,3]TRIAZOLA-2(1,2),7(1)-DIBENZENAHEPTAPHANE-74-CARBOXAMIDE” (Bayer Aktiengesellschaft, priority 2021, published 2024)

Assays:
human factor XIa = human factor XIa (Homo sapiens (Human), UniProt P03951); assay: Measurement of FXIa inhibition (fluorogenic peptide substrate); format: biochemical; settings: substrate Boc-Glu(OBzl)-Ala-Arg-AMC
Procedure: (§1) The factor XIa inhibition of the substances according to the invention is determined using a biochemical test system which utilizes the reaction of a peptidic factor XIa substrate to determine the enzymatic activity of human factor XIa. Here, factor XIa cleaves from the peptidic factor XIa substrate the C-terminal aminomethylcoumarin (AMC), the fluorescence of which is measured. The determinations are carried out in microtitre plates.
(§2) Test substances are dissolved in dimethyl sulfoxide and serially diluted in dimethyl sulfoxide (3000 μM to 0.0078 μM; resulting final concentrations in the test: 50 µM to 0.00013 μM). In each case 1 μl of the diluted substance solutions is placed into the wells of white microtitre plates from Greiner (384 wells). […] After 15 min of incubation, the enzyme reaction is started by addition of 20 μl of the factor XIa substrate Boc-Glu(OBzl)-Ala-Arg-AMC dissolved in assay buffer (10 μM in assay buffer) from Bachem, the mixture is incubated at room temperature (22° C.) for 30 min and fluorescence is then measured (excitation: 360 nm, emission: 460 nm). The measured emissions of the test batches with test substance are compared to those of control batches without test substance (only dimethyl sulfoxide instead of test substance in dimethyl sulfoxide), and IC50 values are calculated from the concentration/activity relationships. […]

human plasma kallikrein = human plasma kallikrein (Homo sapiens (Human), UniProt P03952); assay: Determination of the plasma kallikrein activity (fluorogenic peptide substrate); format: biochemical; settings: substrate H-Pro-Phe-Arg-AMC
Sequence of human plasma kallikrein (P03952 391-638): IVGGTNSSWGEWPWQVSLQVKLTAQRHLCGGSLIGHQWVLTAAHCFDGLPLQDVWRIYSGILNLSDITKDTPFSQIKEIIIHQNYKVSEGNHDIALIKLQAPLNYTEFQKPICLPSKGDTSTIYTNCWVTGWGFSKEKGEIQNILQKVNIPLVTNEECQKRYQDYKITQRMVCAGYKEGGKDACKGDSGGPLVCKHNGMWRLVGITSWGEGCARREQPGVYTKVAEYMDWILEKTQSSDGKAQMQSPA
Sequence of human plasma kallikrein (P03952 20-390 partner): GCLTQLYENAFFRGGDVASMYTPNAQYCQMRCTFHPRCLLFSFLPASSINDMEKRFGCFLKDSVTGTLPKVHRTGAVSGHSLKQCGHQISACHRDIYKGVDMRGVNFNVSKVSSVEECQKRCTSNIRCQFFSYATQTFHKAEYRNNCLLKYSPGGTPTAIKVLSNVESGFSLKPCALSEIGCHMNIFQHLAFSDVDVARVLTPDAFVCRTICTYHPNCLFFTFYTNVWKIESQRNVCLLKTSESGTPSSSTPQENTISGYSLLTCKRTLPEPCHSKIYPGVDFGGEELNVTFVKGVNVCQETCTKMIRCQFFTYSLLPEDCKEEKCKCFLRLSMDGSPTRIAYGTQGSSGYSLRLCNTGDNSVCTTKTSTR
Procedure: as §1, with “To determine the plasma kallikrein” for “The factor XIa”, “invention,” for “invention is determined using”, “system is used” for “system”, “plasma kallikrein” for “factor XIa”, “plasma kallikrein.” for “factor XIa.”
as §2, with “[…];” for “μM;”, “μM” for “µM”, “the” for “the factor XIa”, “H-Pro-Phe-Arg-AMC” for “Boc-Glu(OBzl)-Ala-Arg-AMC”

Sequence of human factor XIa (P03951 388-625): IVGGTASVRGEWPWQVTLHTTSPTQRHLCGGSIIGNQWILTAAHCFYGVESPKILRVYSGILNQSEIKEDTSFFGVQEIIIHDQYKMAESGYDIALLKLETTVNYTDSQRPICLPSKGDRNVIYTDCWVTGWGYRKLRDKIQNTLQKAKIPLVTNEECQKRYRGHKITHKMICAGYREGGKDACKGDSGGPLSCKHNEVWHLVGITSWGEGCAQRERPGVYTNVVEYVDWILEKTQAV
Sequence of human factor XIa (P03951 19-387 partner): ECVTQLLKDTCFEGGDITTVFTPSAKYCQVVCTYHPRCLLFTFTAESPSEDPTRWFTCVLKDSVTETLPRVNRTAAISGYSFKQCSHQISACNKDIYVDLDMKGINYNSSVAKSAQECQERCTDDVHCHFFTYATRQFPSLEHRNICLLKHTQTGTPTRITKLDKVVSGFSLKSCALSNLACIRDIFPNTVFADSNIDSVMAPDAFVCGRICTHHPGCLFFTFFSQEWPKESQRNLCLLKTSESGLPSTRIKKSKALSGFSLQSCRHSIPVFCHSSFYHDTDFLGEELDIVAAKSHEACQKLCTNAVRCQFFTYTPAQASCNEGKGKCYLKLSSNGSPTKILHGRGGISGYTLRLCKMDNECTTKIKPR

SMILES: COc1cn([C@@H](C)C(=O)Nc2ccc(C(N)=O)c(F)c2)c(=O)cc1-c1c(-n2cc(C(F)(F)F)nn2)ccc(Cl)c1F [Example 2.4, 4-({(2S)-2-[4-{3-Chloro-2-fluoro-6-[4-(trifluoromethyl)-1H-1,2,3-triazol-1-yl]phenyl}-5-methoxy-2-oxopyridin-1(2H)-yl]propanoyl}amino)-2-fluorobenzamide]
- IC50 (human factor XIa): 1.2 nM
- IC50 (human plasma kallikrein): 3.4 nM
